Source: the supplement of paper PMC10307832

Columns and labels:
Assay in all cases: relative viability (nuclei count vs DMSO), 5 days (fraction); higher = more cells survive
Pemetrexed + Trametinib = compound: Nc1nc2[nH]cc(CCc3ccc(C(=O)N[C@@H](CCC(=O)O)C(=O)O)cc3)c2c(=O)[nH]1 [Pemetrexed] + CC(=O)Nc1cccc(-n2c(=O)n(C3CC3)c(=O)c3c(Nc4ccc(I)cc4F)n(C)c(=O)c(C)c32)c1 [Trametinib] (partner 0.02 µM)
Procedure, shortened: (§1)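 After 5 days of treatment, lung cancer cells in 1536-well plates were fixed and stained in a single step (final 0.05% Triton X-100, 1% formaldehyde, 1 ug/ml Hoechst) and their nuclei counted on 4× images. Treatment had been applied by pin tool the day after seeding as one drug alone or as a fixed anchor-drug dose with five library-drug doses (not always all listed) in √10 steps. Relative viability is the nuclei count of treated wells divided by that of vehicle wells, and values are medians of duplicate plates.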

Pemetrexed + OSI-027 = compound: Nc1nc2[nH]cc(CCc3ccc(C(=O)N[C@@H](CCC(=O)O)C(=O)O)cc3)c2c(=O)[nH]1 [Pemetrexed] + COc1cccc2cc(-c3nc([C@H]4CC[C@H](C(=O)O)CC4)n4ncnc(N)c34)[nH]c12 [OSI-027] (partner 0.5 µM)
Procedure, shortened: as §1

Pemetrexed + Crizotinib = compound: Nc1nc2[nH]cc(CCc3ccc(C(=O)N[C@@H](CCC(=O)O)C(=O)O)cc3)c2c(=O)[nH]1 [Pemetrexed] + C[C@@H](Oc1cc(-c2cnn(C3CCNCC3)c2)cnc1N)c1c(Cl)ccc(F)c1Cl [Crizotinib] (partner 1 µM)
Procedure, shortened: as §1

Pemetrexed + Olaparib = compound: Nc1nc2[nH]cc(CCc3ccc(C(=O)N[C@@H](CCC(=O)O)C(=O)O)cc3)c2c(=O)[nH]1 [Pemetrexed] + O=C(c1cc(Cc2n[nH]c(=O)c3ccccc23)ccc1F)N1CCN(C(=O)C2CC2)CC1 [Olaparib] (partner 8 µM)
Procedure, shortened: as §1

Row | Cell Line | relative viability (Pemetrexed + Trametinib; first compound 0.002 µM) | relative viability (Pemetrexed + Trametinib; first compound 0.006325 µM) | relative viability (Pemetrexed + Trametinib; first compound 0.02 µM) | relative viability (Pemetrexed + Trametinib; first compound 0.06325 µM) | relative viability (Pemetrexed + Trametinib; first compound 0.2 µM) | relative viability (Pemetrexed + OSI-027; first compound 0.002 µM) | relative viability (Pemetrexed + OSI-027; first compound 0.006325 µM) | relative viability (Pemetrexed + OSI-027; first compound 0.02 µM) | relative viability (Pemetrexed + OSI-027; first compound 0.06325 µM) | relative viability (Pemetrexed + OSI-027; first compound 0.2 µM) | relative viability (Pemetrexed + Crizotinib; first compound 0.002 µM) | relative viability (Pemetrexed + Crizotinib; first compound 0.006325 µM) | relative viability (Pemetrexed + Crizotinib; first compound 0.02 µM) | relative viability (Pemetrexed + Crizotinib; first compound 0.06325 µM) | relative viability (Pemetrexed + Crizotinib; first compound 0.2 µM) | relative viability (Pemetrexed + Olaparib; first compound 0.002 µM) | relative viability (Pemetrexed + Olaparib; first compound 0.006325 µM) | relative viability (Pemetrexed + Olaparib; first compound 0.02 µM) | relative viability (Pemetrexed + Olaparib; first compound 0.06325 µM) | relative viability (Pemetrexed + Olaparib; first compound 0.2 µM)
1 | CAL-12T | 0.332 | 0.329 | 0.328 | 0.347 | 0.331 | 0.617 | 0.631 | 0.819 | 0.648 | 0.671 | 0.647 | 0.67 | 0.971 | 0.65 | 0.643 | 0.706 | 0.616 | 0.804 | 0.694 | 0.692
2 | NCI-H596 | 0.886 | 0.869 | 0.663 | 0.643 | 0.5 | 0.705 | 0.691 | 0.642 | 0.632 | 0.414 | 0.854 | 0.967 | 1.09 | 0.78 | 0.665 | 0.747 | 0.73 | 0.761 | 0.668 | 0.514
3 | PC-14 | 0.681 | 0.651 | 0.805 | 0.198 | 0.123 | 0.681 | 0.769 | 1.16 | 0.197 | 0.102 | 0.86 | 0.888 | 0.838 | 0.709 | 0.207 | 0.272 | 0.151 | 0.274 | 0.127 | 0.0867
4 | NCI-H1915 | 0.287 | 0.294 | 0.248 | 0.306 | 0.283 | 0.58 | 0.631 | 0.661 | 0.609 | 0.573 | 0.876 | 0.834 | 0.936 | 0.877 | 0.914 | 0.243 | 0.277 | 0.274 | 0.238 | 0.274
5 | NCI-H647 | 0.52 | 0.436 | 0.478 | 0.406 | 0.17 | 0.467 | 0.492 | 0.806 | 0.744 | 0.318 |  | 0.921 | 1.14 | 0.785 | 0.32 | 0.585 | 0.67 | 0.765 | 0.465 | 0.163
6 | NCI-H322M | 0.511 | 0.478 | 0.503 | 0.456 | 0.551 | 0.606 | 0.484 | 0.536 | 0.583 | 0.476 | 0.886 | 0.884 | 1.05 | 0.912 | 0.778 | 0.682 | 0.763 | 0.752 | 0.84 | 0.736
7 | NCI-H2170 | 0.916 | 0.915 | 0.923 | 0.955 | 0.912 | 0.656 | 0.698 | 0.692 | 0.708 | 0.744 | 1.3 | 1.03 | 1.1 | 1.2 | 1.09 | 0.573 | 0.62 | 0.652 | 0.633 | 0.555
8 | BEN | 1.19 | 0.942 | 1.08 | 0.884 | 1.05 | 0.318 | 0.301 | 0.302 | 0.296 | 0.332 | 0.992 | 0.859 | 0.896 | 0.787 | 0.715 | 1.07 | 1.01 | 1.05 | 0.97 | 0.891
